# Results as given in patent US20160311791A1, “NOVEL TRICYCLIC CALCIUM SENSING RECEPTOR ANTOGONISTS FOR THE TREATMENT OF OSTEOPOSOSIS” (MERCK SHARP & DOHME CORP., priority 2013, published 2016).
# Target: T1, human CaSR (Homo sapiens, UniProt P41180)
# T1 sequence (P41180 20-1078): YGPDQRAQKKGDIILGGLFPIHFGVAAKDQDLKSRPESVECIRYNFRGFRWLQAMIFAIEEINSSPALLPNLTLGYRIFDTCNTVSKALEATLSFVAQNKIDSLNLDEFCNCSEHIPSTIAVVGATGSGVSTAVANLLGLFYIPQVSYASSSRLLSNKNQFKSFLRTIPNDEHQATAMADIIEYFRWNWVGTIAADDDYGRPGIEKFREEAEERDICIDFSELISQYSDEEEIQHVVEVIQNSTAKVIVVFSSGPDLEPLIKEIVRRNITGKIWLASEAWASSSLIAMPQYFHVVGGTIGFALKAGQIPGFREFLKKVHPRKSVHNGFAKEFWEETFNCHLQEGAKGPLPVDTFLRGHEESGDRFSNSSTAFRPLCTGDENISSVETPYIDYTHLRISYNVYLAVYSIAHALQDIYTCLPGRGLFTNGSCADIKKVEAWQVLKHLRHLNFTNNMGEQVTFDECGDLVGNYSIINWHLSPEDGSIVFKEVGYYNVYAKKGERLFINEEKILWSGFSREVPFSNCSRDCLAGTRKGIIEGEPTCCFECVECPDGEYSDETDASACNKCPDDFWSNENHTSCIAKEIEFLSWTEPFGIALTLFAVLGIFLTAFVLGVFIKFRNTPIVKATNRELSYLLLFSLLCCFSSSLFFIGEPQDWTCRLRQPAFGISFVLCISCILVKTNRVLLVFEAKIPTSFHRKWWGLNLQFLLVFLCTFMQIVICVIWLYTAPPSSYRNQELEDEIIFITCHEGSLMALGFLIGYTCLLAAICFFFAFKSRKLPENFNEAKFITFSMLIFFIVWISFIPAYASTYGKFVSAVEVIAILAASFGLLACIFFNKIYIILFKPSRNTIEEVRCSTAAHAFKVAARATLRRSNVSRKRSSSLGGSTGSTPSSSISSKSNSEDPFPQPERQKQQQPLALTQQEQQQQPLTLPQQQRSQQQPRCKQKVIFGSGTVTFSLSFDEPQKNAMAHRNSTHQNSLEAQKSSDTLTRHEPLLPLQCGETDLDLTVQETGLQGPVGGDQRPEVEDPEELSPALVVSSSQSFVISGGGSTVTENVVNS
# Experiment: CaSR FLIPR assay (calcilytic activity)
# Assay type: cell-based
# Parameters: expressed in transfected cells
# Conditions: HEK293 cells stably expressing human recombinant CaSR; 1 mM CaCl2 agonist; Tables 1-24; read-out: FLIPR ASSAY IC50
# Description: Procedures for CaSR FLIPR Assay
# Calcilytic activity of the compound is measured in HEK293 cells stably expressing human recombinant CaSR (HEK-CaSR) using a FLIPR^TETRA device (Molecular Devices, Sunnyvale, Calif.) according to the manufacturer's directions. […] On the day of the assay, one vial of FLIPR Calcium 4 Assay Kit reagent Component A was equilibrated to room temperature. The content of the Component A vial was diluted by adding 10 ml dilution buffer (2×loading dye). The sample was mixed by vortexing (1-2 minutes) until the contents of the vial dissolved. The Component A vial mixture was diluted with 10 ml dilution buffer. Media was aspirated from the cells and 80 μl of loading buffer was added to each well. Plates were incubated for 1 hour at 37° C. and then placed at room temperature for 10 minutes. A two-stage method of generating 10-point serial dilutions was used. Compound was serially diluted in 100% DMSO (10 point, 3-fold dilution of each compound from 2 mM in 100% DMSO). 3 μl of serially diluted compound was transferred into a second assay microplate that contained 97 μl of TETRA dilution buffer (20 mM HEPES pH7.4, 1×HBSS without Ca and Mg, 0.4 mM CaCl2, 0.4 mM MgSO4, 0.5 mM MgCl2) to create the intermediate dilution plate. After reading the base line, the compounds in 0.5% DMSO in dilution buffer were added to their respective wells as 20 μl aliquots at 6×the final drug concentration. The fluorescence signals were then read. Subsequently, 20 μl of 3.6 mM of CaCl2 agonist (1 mM final concentration) was added to each well. For background, 20 μl of TETRA dilution buffer was added instead. The protocol consisted of a pre-addition read of 10 frames (10×1 frame/sec), a post 1st addition read of 100 frames (60×1 frame/sec, 40×1 frame/3 sec), pause 3 min, a post 2nd addition read of 100 frames (60×1 frame/sec, 40×1 frame/3 sec) on a FLIPR^TETRA Plate Reader.
row,IC50 [nM],SMILES
1,47,C[C@@H](OC[C@H](O)CNC(C)(C)Cc1ccc2occc2c1)c1cccc2c1[C@@H]1[C@H](C2)[C@H]1C(=O)O [Example 13-2]
2,4900,C[C@@H](OC[C@H](O)CNC(C)(C)Cc1ccc2ccccc2c1)c1cccc2c1[C@H]1[C@@H](C2)[C@@H]1C(=O)O [Example 13-6]
3,106,Cc1ccc(C(C)OC[C@H](O)CNC(C)(C)Cc2ccc3ccccc3c2)c2c1OC(C)(C)C1C(C(=O)O)C21 (stereo partly drawn) [Example 24-1]
4,88,C[C@@H](OC[C@H](O)CNC(C)(C)Cc1ccc2c(c1)CCC2)c1cccc2c1[C@@H]1[C@H](C2)[C@H]1C(=O)O [Example 13-3]
5,24,COc1ccc(CC(C)(C)NC[C@@H](O)CO[C@H](C)c2c(Cl)cc(C)c3c2[C@@H]2[C@H](O3)[C@H]2C(=O)O)c(F)c1 [Example 16-5]
6,77,Cc1ccc([C@@H](C)OC[C@H](O)CNC(C)(C)Cc2ccc(Cl)cc2Cl)c2c1O[C@H]1[C@H](C(=O)O)[C@@H]21 [Example 9-9]
7,36,C[C@@H](OC[C@H](O)CNC(C)(C)Cc1ccc2sccc2c1)c1cccc2c1[C@@H]1[C@H](C2)[C@H]1C(=O)O [Example 13-4]
8,41,Cc1cc(Cl)c([C@@H](C)OC[C@H](O)CNC(C)(C)Cc2ccc3c(c2)OCCO3)c2c1O[C@@H]1[C@@H](C(=O)O)[C@H]21 [Example 16-4]
9,270,C[C@@H](OC[C@H](O)CNC(C)(C)Cc1ccc2ccccc2c1)c1cccc2c1C[C@@H]1[C@@H](C(=O)O)[C@H]21 [Example 14-1]
10,22,Cc1ccc([C@@H](C)OC[C@H](O)CNC(C)(C)Cc2ccc3ccccc3c2)c2c1O[C@H]1[C@H](C(=O)O)[C@@H]21 [Example 9-1]
11,40,C[C@@H](OC[C@H](O)CNC(C)(C)Cc1ccc2ccccc2c1)c1ccc(Cl)c2c1C1C(O2)C1C(=O)O (stereo partly drawn) [Example 18-1]
12,224,COc1ccc(CC(C)(C)NC[C@@H](O)CO[C@H](C)c2ccc(C)c3c2[C@H]2[C@@H](O3)[C@@H]2C(=O)O)cc1F [Example 9-5]

# More lines, now with the values behind:
row,SMILES,IC50 [nM]
1,Cc1ccc([C@@H](C)OC[C@H](O)CNC(C)(C)Cc2c(F)cc(F)cc2F)c2c1O[C@@H]1[C@@H](C(=O)O)[C@H]21 [Example 8-22],210
2,Cc1ccc(CC(C)(C)NC[C@@H](O)CO[C@H](C)c2ccc(C)c3c2[C@@H]2[C@H](O3)[C@H]2C(=O)O)cc1F [Example 8-4],21
3,COc1ccc(CC(C)(C)NC[C@@H](O)CO[C@H](C)c2ccc(C)c3c2[C@@H]2[C@H](O3)[C@H]2C(=O)O)c(Cl)c1 [Example 8-28],22
4,C[C@@H](OC[C@H](O)CNC(C)(C)Cc1ccc2c(c1)OCCO2)c1cccc2c1O[C@@H]1[C@@H](C(=O)O)[C@H]21 [Example 1-10],460
5,C[C@@H](OC[C@H](O)CNC(C)(C)Cc1ccc2occc2c1)c1cccc2c1O[C@@H]1[C@@H](C(=O)O)[C@H]21 [Example 1-6],49
6,Cc1ccc([C@@H](C)OC[C@H](O)CNC(C)(C)Cc2ccc3ncccc3c2)c2c1O[C@H]1C2[C@@H]1C(=O)O (stereo partly drawn) [Example 8-25],460
7,COc1ccc(CC(C)(C)NC[C@@H](O)CO[C@H](C)c2ccc(C)c3c2[C@@H]2[C@H](O3)[C@H]2C(=O)O)c(F)c1 [Example 8-14],30
8,CSc1ccc(CC(C)(C)NC[C@@H](O)CO[C@H](C)c2cccc3c2[C@@H]2[C@H](O3)[C@H]2C(=O)O)cc1C [Example 5-19],97
9,Cc1ccc([C@@H](C)OC[C@H](O)CNC(C)(C)Cc2cc(F)c(F)cc2F)c2c1O[C@@H]1[C@@H](C(=O)O)[C@H]21 [Example 8-21],99
10,Cc1ccc([C@@H](C)OC[C@H](O)CNC(C)(C)CC2Cc3ccccc3C2)c2c1O[C@H]1[C@H](C(=O)O)[C@@H]21 [Example 9-3],46
11,C[C@@H](OC[C@H](O)CNC(C)(C)Cc1ccc2ccccc2c1)c1cccc2c1[C@H]1[C@@H](O2)[C@@H]1C(=O)O [Example 7-1],80
12,C[C@@H](OC[C@H](O)CNC(C)(C)Cc1ccc2ccccc2c1)c1cccc2c1[C@@H]1[C@H](O2)[C@H]1C(=O)NS(=O)(=O)C1(C)CC1 [Example 6-1],30
13,C[C@@H](OC[C@H](O)CNC(C)(C)CC1Cc2ccccc2C1)c1cccc2c1O[C@@H]1[C@@H](C(=O)O)[C@H]21 [Example 1-3],40
14,Cc1ccc([C@@H](C)OC[C@H](O)CNC(C)(C)CC2Cc3ccccc3C2)c2c1O[C@@H]1[C@@H](C(=O)O)[C@H]21 [Example 8-3],20
15,Cc1ccc([C@@H](C)OC[C@H](O)CNC(C)(C)Cc2cc3ccccc3s2)c2c1O[C@@H]1[C@@H](C(=O)O)[C@H]21 [Example 8-6],96
16,CSc1ccc(CC(C)(C)NC[C@@H](O)CO[C@H](C)c2ccc(C)c3c2[C@@H]2[C@H](O3)[C@H]2C(=O)O)cc1C [Example 8-34],82
17,Cc1ccc(CC(C)(C)NC[C@@H](O)CO[C@H](C)c2cccc3c2O[C@@H]2[C@@H](C(=O)O)[C@H]32)c(F)c1 [Example 1-11],140
18,Cc1ccc([C@@H](C)OC[C@H](O)CNC(C)(C)Cc2ccc3ccccc3c2)c2c1O[C@@H]1[C@@H](C(=O)O)[C@H]21 [Example 8-1],14
19,Cc1ccc([C@@H](C)OC[C@H](O)CNC(C)(C)Cc2ccc(Cl)c(Cl)c2)c2c1O[C@@H]1[C@@H](C(=O)O)[C@H]21 [Example 8-15],14
20,Cc1ccc([C@@H](C)OC[C@H](O)CNC(C)(C)Cc2ccc3sccc3c2)c2c1O[C@@H]1[C@@H](C(=O)O)[C@H]21 [Example 8-12],10
21,Cc1ccc([C@@H](C)OC[C@H](O)CNC(C)(C)CCCc2ccccc2)c2c1O[C@@H]1[C@@H](C(=O)O)[C@H]21 [Example 8-16],29
22,Cc1ccc([C@@H](C)OC[C@H](O)CNC(C)(C)Cc2ccc3c(c2)OCO3)c2c1O[C@@H]1[C@@H](C(=O)O)[C@H]21 [Example 8-11],50
23,C[C@@H](OC[C@H](O)CNC(C)(C)Cc1ccc2c(c1)OCO2)c1cccc2c1[C@@H]1[C@H](O2)[C@H]1C(=O)O [Example 5-8],160
24,C[C@@H](OC[C@H](O)CNC(C)(C)Cc1ccc2occc2c1)c1cccc2c1[C@@H]1[C@H](O2)[C@H]1C(=O)O [Example 5-6],137
25,Cc1ccc([C@@H](C)OC[C@H](O)CN2CCCC2Cc2ccccc2)c2c1O[C@@H]1[C@@H](C(=O)O)[C@H]21 (stereo partly drawn) [Example 8-8],489
26,C[C@@H](OC[C@H](O)CNC(C)(C)Cc1ccc2c(c1)OCCO2)c1cccc2c1[C@@H]1[C@H](O2)[C@H]1C(=O)O [Example 5-10],153
27,Cc1ccc([C@@H](C)OC[C@H](O)CNC(C)(C)CSCc2ccccc2)c2c1O[C@@H]1[C@@H](C(=O)O)[C@H]21 [Example 8-29],500
28,C[C@@H](OC[C@H](O)CNC(C)(C)Cc1ccc(Cl)c(F)c1)c1cccc2c1O[C@@H]1[C@@H](C(=O)O)[C@H]21 [Example 1-2],148
29,Cc1ccc(CC(C)(C)NC[C@@H](O)CO[C@H](C)c2cccc3c2[C@@H]2[C@H](O3)[C@H]2C(=O)O)cc1C [Example 5-5],26
30,CSc1ccc(CC(C)(C)NC[C@@H](O)CO[C@H](C)c2ccc(C)c3c2[C@@H]2[C@H](O3)[C@H]2C(=O)O)cc1Cl [Example 8-33],30
